Reference: paper PMC6379498, “Radiosynthesis and in vivo evaluation of ^11C-labeled BMS-193885 and its desmethyl analog as PET tracers for neuropeptide Y1 receptors” (EJNMMI Radiopharmacy and Chemistry, 2019)

Key:
P-gp and BCRP = test: Effect of pretreatment with elacridar on tissue distribution of radioactivity; format: in vivo, mice; details: 30 min post-injection, elacridar 5 mg/kg 20-30 min before tracer, vs control
Procedure: The effects of pretreatment with 1 (BMS-193885) or the ABC transporter-inhibitor elacridar (inhibiting drug efflux transporters, mainly P-gp and BCRP) on tissue distributions of radioactivity were investigated. [^11C]1 (7.1–14 MBq/0.079–0.23 nmol) or [^11C]2 (6.0 MBq/0.16 nmol) was intravenously injected into mice (aged 7–8 weeks, weighing 32–36 g, n = 4–8) 20–30 min after the administration of the solution of 1 (10 mg/kg body weight [b.w.]/0.1 mL water containing 20% Tween 80), elacridar (5 mg/kg b.w./0.1 mL water), or a control fluid (0.1 mL water). Mice were euthanized by cervical dislocation at 30 min post-injection.
(§1) Blood samples were collected by heart puncture. Tissues were dissected and weighed. The radioactivity in samples was measured with an automatic gamma counter (Wizard 3′′ 1480, PerkinElmer, Waltham, MA, USA). The tissue uptake of radioactivity was expressed as the percentage of injected dose detected per gram of sample (%ID/g, tissue radioactivity/g tissue/injected radioactivity × 100).

[1] = Analysis of metabolites in mouse plasma (radio-HPLC); format: in vivo, mice; details: for Percentage of intact tracer in plasma: mouse plasma, 30 min post-injection, radio-HPLC, n=4; for Metabolism in vivo (mouse plasma): within 30 min post-injection
Procedure: [^11C]1 (37–56 MBq/0.73–0.95 nmol) or [^11C]2 (46–61 MBq/1.1–1.5 nmol) was intravenously injected into mice (aged 7–9 weeks, weighing 33–43 g, n = 4). Mice were euthanized by cervical dislocation at 30 min post-injection. Blood samples taken by heart puncture were collected into heparinized syringes. Samples were centrifuged at 13,000×g (Model 5500, KUBOTA, Tokyo, Japan) for 3 min at 4 °C to obtain plasma (0.1–0.2 mL). Plasma samples were added to equivalent volumes of 1 mol/L ammonium acetate solution. Samples were directly loaded into the injector loop, and analyzed using the combination of column-switching HPLC and on-line solid-phase extraction as a modification of the previously described procedures (Chitneni et al. [2008]; Gillings [2009]; Greuter et al. [2005]; Hilton et al. [2000]; Kawamura et al. [2013]). HPLC analysis was performed using the radio-HPLC system for metabolite analysis mentioned in the ‘General’ section above, and also using a Cadenza HS-C18 column (3 μm mesh, 10 mm i.d. × 150 mm length; Imtakt, Kyoto, Japan) fitted with a Cadenza HS-C18 guard cartridge (3 μm mesh, 10 mm i.d. × 8 mm length; Imtakt). Elution was performed using a 0.1 mol/L ammonium acetate solution for 3 min after loading, a mixture of 90% acetonitrile solution and water (0:100 to 40:60, vol./vol.) from 3 to 4 min after loading, and then a mixture of 90% acetonitrile solution and water (40:60, vol./vol.) from 4 to 12 min after loading. The flow rate was 4 mL/min. The retention times of [^11C]1 and [^11C]2 were 10.0 and 10.5 min, respectively.

[2] = Biodistribution of radioactivity in mice after tracer injection; format: in vivo; details: for Radioactivity level, blood / Radioactivity level, brain / Radioactivity level, heart / Radioactivity level, kidney / Radioactivity level, liver / Radioactivity level, lung / Radioactivity level, muscle / Radioactivity level, pancreas / Radioactivity level, small intestine / Radioactivity level, spleen: mean±S.D. n=4
Procedure: [^11C]1 (13 MBq/0.12 nmol) or [^11C]2 (15 MBq/0.36 nmol) was intravenously injected into mice (aged 7–8 weeks, weighing 33–38 g, n = 4). Mice were euthanized by cervical dislocation at 5, 15, 30, or 60 min post-injection.
as §1

SMILES: COC(=O)C1=C(C)NC(C)=C(C(=O)OC)C1c1cccc(NC(=O)NCCCN2CCC(c3cccc(O[11CH3])c3)CC2)c1 [[^11C]1]
- Change of radioactivity level in blood by pretreatment with elacridar (P-gp and BCRP; blood): significantly increased
- Change of radioactivity level in brain by pretreatment with elacridar (P-gp and BCRP): significantly increased
- Change of radioactivity level in heart by pretreatment with elacridar (P-gp and BCRP): significantly increased
- Change of radioactivity level in kidney by pretreatment with elacridar (P-gp and BCRP): significantly decreased
- Change of radioactivity level in lung by pretreatment with elacridar (P-gp and BCRP; lung): significantly increased
- Change of radioactivity level in muscle by pretreatment with elacridar (P-gp and BCRP; muscle): significantly increased
- Percentage of intact tracer in plasma [1]: 11.8 ± 2.5%
- Metabolism in vivo (mouse plasma) [1]: rapidly metabolized
- Radioactivity level, blood ([2]; 5 min after i.v. injection): 0.76±0.07 %ID/g
- Radioactivity level, blood ([2]; 15 min after i.v. injection): 0.60±0.06 %ID/g
- Radioactivity level, blood ([2]; 30 min after i.v. injection): 0.50±0.04 %ID/g
- Radioactivity level, blood ([2]; 60 min after i.v. injection): 0.46±0.06 %ID/g
- Radioactivity level, brain ([2]; 5 min after i.v. injection): 0.21±0.01 %ID/g
- Radioactivity level, brain ([2]; 15 min after i.v. injection): 0.40±0.06 %ID/g
- Radioactivity level, brain ([2]; 30 min after i.v. injection): 0.32±0.05 %ID/g
- Radioactivity level, brain ([2]; 60 min after i.v. injection): 0.32±0.05 %ID/g
- Radioactivity level, heart ([2]; 5 min after i.v. injection): 1.93±0.23 %ID/g
- Radioactivity level, heart ([2]; 15 min after i.v. injection): 1.38±0.04 %ID/g
- Radioactivity level, heart ([2]; 30 min after i.v. injection): 1.10±0.05 %ID/g
- Radioactivity level, heart ([2]; 60 min after i.v. injection): 0.82±0.07 %ID/g
- Radioactivity level, kidney ([2]; 5 min after i.v. injection): 17.41±1.12 %ID/g
- Radioactivity level, kidney ([2]; 15 min after i.v. injection): 14.06±1.00 %ID/g
- Radioactivity level, kidney ([2]; 30 min after i.v. injection): 12.93±1.01 %ID/g
- Radioactivity level, kidney ([2]; 60 min after i.v. injection): 13.37±2.72 %ID/g
- Radioactivity level, liver ([2]; 5 min after i.v. injection): 16.09±1.85 %ID/g
- Radioactivity level, liver ([2]; 15 min after i.v. injection): 8.82±2.28 %ID/g
- Radioactivity level, liver ([2]; 30 min after i.v. injection): 5.05±0.40 %ID/g
- Radioactivity level, liver ([2]; 60 min after i.v. injection): 4.09±1.60 %ID/g
- Radioactivity level, lung ([2]; 5 min after i.v. injection): 5.08±1.12 %ID/g
- Radioactivity level, lung ([2]; 15 min after i.v. injection): 3.43±0.28 %ID/g
- Radioactivity level, lung ([2]; 30 min after i.v. injection): 2.72±0.21 %ID/g
- Radioactivity level, lung ([2]; 60 min after i.v. injection): 2.13±0.36 %ID/g
- Radioactivity level, muscle ([2]; 5 min after i.v. injection): 0.64±0.05 %ID/g
- Radioactivity level, muscle ([2]; 15 min after i.v. injection): 0.57±0.08 %ID/g
- Radioactivity level, muscle ([2]; 30 min after i.v. injection): 0.52±0.11 %ID/g
- Radioactivity level, muscle ([2]; 60 min after i.v. injection): 0.47±0.07 %ID/g
- Radioactivity level, pancreas ([2]; 5 min after i.v. injection): 3.40±0.46 %ID/g
- Radioactivity level, pancreas ([2]; 15 min after i.v. injection): 3.75±0.35 %ID/g
- Radioactivity level, pancreas ([2]; 30 min after i.v. injection): 3.64±0.22 %ID/g
- Radioactivity level, pancreas ([2]; 60 min after i.v. injection): 3.70±0.41 %ID/g
- Radioactivity level, small intestine ([2]; 5 min after i.v. injection): 6.98±2.37 %ID/g
- Radioactivity level, small intestine ([2]; 15 min after i.v. injection): 9.11±1.31 %ID/g
- Radioactivity level, small intestine ([2]; 30 min after i.v. injection): 11.02±1.44 %ID/g
- Radioactivity level, small intestine ([2]; 60 min after i.v. injection): 12.43±1.54 %ID/g
- Radioactivity level, spleen ([2]; 5 min after i.v. injection): 3.18±0.67 %ID/g
- Radioactivity level, spleen ([2]; 15 min after i.v. injection): 2.05±0.17 %ID/g
- Radioactivity level, spleen ([2]; 30 min after i.v. injection): 1.66±0.04 %ID/g
- Radioactivity level, spleen ([2]; 60 min after i.v. injection): 1.41±0.24 %ID/g

SMILES: COC(=O)C1=C(C)NC(C)=C(C(=O)OC)C1c1cccc(N[11C](=O)NCCCN2CCC(c3cccc(O)c3)CC2)c1 [[^11C]2]
- Change of radioactivity level in brain by pretreatment with elacridar (P-gp and BCRP): not increased
- Change of radioactivity level in heart by pretreatment with elacridar (P-gp and BCRP): significantly increased
- Change of radioactivity level in kidney by pretreatment with elacridar (P-gp and BCRP): significantly decreased
- Change of radioactivity level in liver by pretreatment with elacridar (P-gp and BCRP; liver): significantly increased
- Percentage of intact tracer in plasma [1]: 19.9 ± 2.4%
- Metabolism in vivo (mouse plasma) [1]: rapidly metabolized
- Radioactivity level, blood ([2]; 5 min after i.v. injection): 0.65±0.05 %ID/g
- Radioactivity level, blood ([2]; 15 min after i.v. injection): 0.21±0.01 %ID/g
- Radioactivity level, blood ([2]; 30 min after i.v. injection): 0.17±0.02 %ID/g
- Radioactivity level, blood ([2]; 60 min after i.v. injection): 0.19±0.20 %ID/g
- Radioactivity level, brain ([2]; 5 min after i.v. injection): 0.05±0.02 %ID/g
- Radioactivity level, brain ([2]; 15 min after i.v. injection): 0.04±0.04 %ID/g
- Radioactivity level, brain ([2]; 30 min after i.v. injection): 0.01±0.00 %ID/g
- Radioactivity level, brain ([2]; 60 min after i.v. injection): 0.03±0.01 %ID/g
- Radioactivity level, heart ([2]; 5 min after i.v. injection): 0.69±0.09 %ID/g
- Radioactivity level, heart ([2]; 15 min after i.v. injection): 0.42±0.02 %ID/g
- Radioactivity level, heart ([2]; 30 min after i.v. injection): 0.28±0.04 %ID/g
- Radioactivity level, heart ([2]; 60 min after i.v. injection): 0.14±0.04 %ID/g
- Brain penetration ([2]; judged from brain radioactivity at 30 min): penetrated the brain poorly
- Radioactivity level, kidney ([2]; 5 min after i.v. injection): 13.25±1.18 %ID/g
- Radioactivity level, kidney ([2]; 15 min after i.v. injection): 10.96±0.51 %ID/g
- Radioactivity level, kidney ([2]; 30 min after i.v. injection): 9.89±0.52 %ID/g
- Radioactivity level, kidney ([2]; 60 min after i.v. injection): 9.23±1.61 %ID/g
- Radioactivity level, liver ([2]; 5 min after i.v. injection): 29.54±1.57 %ID/g
- Radioactivity level, liver ([2]; 15 min after i.v. injection): 24.28±3.04 %ID/g
- Radioactivity level, liver ([2]; 30 min after i.v. injection): 15.54±4.41 %ID/g
- Radioactivity level, liver ([2]; 60 min after i.v. injection): 8.43±2.71 %ID/g
- Radioactivity level, lung ([2]; 5 min after i.v. injection): 1.00±0.08 %ID/g
- Radioactivity level, lung ([2]; 15 min after i.v. injection): 0.79±0.11 %ID/g
- Radioactivity level, lung ([2]; 30 min after i.v. injection): 0.82±0.13 %ID/g
- Radioactivity level, lung ([2]; 60 min after i.v. injection): 0.65±0.08 %ID/g
- Radioactivity level, muscle ([2]; 5 min after i.v. injection): 0.44±0.21 %ID/g
- Radioactivity level, muscle ([2]; 15 min after i.v. injection): 0.30±0.02 %ID/g
- Radioactivity level, muscle ([2]; 30 min after i.v. injection): 0.38±0.17 %ID/g
- Radioactivity level, muscle ([2]; 60 min after i.v. injection): 0.33±0.19 %ID/g
- Radioactivity level, pancreas ([2]; 5 min after i.v. injection): 1.20±0.18 %ID/g
- Radioactivity level, pancreas ([2]; 15 min after i.v. injection): 1.27±0.11 %ID/g
- Radioactivity level, pancreas ([2]; 30 min after i.v. injection): 1.18±0.18 %ID/g
- Radioactivity level, pancreas ([2]; 60 min after i.v. injection): 1.15±0.13 %ID/g
- Radioactivity level, small intestine ([2]; 5 min after i.v. injection): 15.78±6.51 %ID/g
- Radioactivity level, small intestine ([2]; 15 min after i.v. injection): 30.77±8.94 %ID/g
- Radioactivity level, small intestine ([2]; 30 min after i.v. injection): 27.23±12.69 %ID/g
- Radioactivity level, small intestine ([2]; 60 min after i.v. injection): 13.52±4.25 %ID/g
- Radioactivity level, spleen ([2]; 5 min after i.v. injection): 0.79±0.11 %ID/g
- Radioactivity level, spleen ([2]; 15 min after i.v. injection): 0.55±0.07 %ID/g
- Radioactivity level, spleen ([2]; 30 min after i.v. injection): 0.37±0.07 %ID/g
- Radioactivity level, spleen ([2]; 60 min after i.v. injection): 0.23±0.05 %ID/g
